Test results reported in US10117890B2, “Methods and compositions for treating pain” (Academia Sinica, priority 2012, dated 2018).
“Also recorded” adds a separate entry of the source.

What was measured:
[1] = system: ASIC3-expressing muscle nociceptors; test: Whole-cell patch clamp of acid-induced current in ASIC3-expressing muscle nociceptors; type: cell-based, mice; conditions: T1-11 10 nM; n=9
Procedure: To retrograde-trace muscle-afferent DRG neurons, mice were injected with 4% Fluorogold (Fluorochrome, Denver, Colo.) into the GM of both legs for 5 to 7 days, then lumbar DRG neurons were dissected and removed from both sides and placed in a tube for digestion with 1 ml DMEM containing 0.125% type 1 collagenase for 90 min and 0.25% trypsin for 20 min at 37° C. The digested DRG neurons were washed with fetal calf serum (FCS)-free DMEM or DMEM containing 10% FCS during each treatment. Fully digested DRGs were triturated and plated on poly-L-lysine-coated cover slides. Cell cultures were maintained in a 5% CO2 incubator at 37° C.
Whole-cell patch-clamp recordings of muscle-afferent neurons involved use of Axopatch MultiClamp 700B (Axon Instruments). Neurons with membrane potential >−40 mV were discarded. […]
Voltage-clamp mode was used to examine the effect of SP on acid-induced currents in ASIC3-expressing DRG neurons. A total of 40 GM and 6 non-GM DRG neurons were recorded in voltage-clamp mode with Vm held at −70 mV. […] To validate whether the modulation of SP on acid-induced current was NK1-receptor specific, acid-induced current was first recorded in a bath containing 10 μM RP67580 for 2 min as a control response. […] Acid-induced current was recorded in a bath containing both SP and genistein (30 μM; Tocris), or both SP and daidzein (30 μM; Tocris) for 3 min. […]

[2] = system: ASIC3; test: Whole-cell patch clamp of acid-induced current in CHO cells transfected with ASIC3; type: cell-based
[3] = system: acid(ASIC3)-induced chronic muscle pain; test: Acid-induced chronic muscle pain model (repeated intramuscular acid injection, von Frey test); type: in vivo, mice; conditions: T1-11 4 pmole, co-injected with acid saline pH 4.0 into gastrocnemius muscle
Text: Adult (8- to 12-wk-old) C57/BL6 mice were used. All procedures followed the Guide for the Use of Laboratory Animals (National Academy Press, Washington D.C., USA) and were approved by the Institutional Animal Care and Use Committee of Academia Sinica. We aimed to minimize the number of animals used and their suffering without compromising the quality of the experiments. The generation and genotyping of Tac1^−/− mice and Asic3^−/− mice were as described. Both null mutant mice were backcrossed to C57/BL6 for 10 generations to establish a congenic strain. Congenic Tac1^−/− Asic3^−/− mice were offspring of Tacl^+/− and Asic3^+/− intercrosses.
Mice received an intramuscular acid injection in the gastrocnemius muscle (GM) containing 20 μl acid saline (pH 4.0) with or without (Sar^9, Met(O2)^11)-substance P (SP; 4, 10, or 40 μM) or 100 μM RP67580 or 200 μM XE991. Mechanical hyperalgesia was assessed by applying a 0.2-mN von Frey filament to the plantar surface of both hind paws of mice. Mice were acclimatized in an acrylic cubicle for 60 min before testing. A positive response was defined as the foot lifting when the von Frey filament was applied. For each paw, the filament was applied 5 times at 30-sec intervals. Responses of the paw to mechanical stimuli were measured before injection and at 4 and 24 hr and 5 days after the first acid injection (day 0) and at 4, 24, and 72 hr and 1 week after the second acid injection (day 5). For single-injection experiments, responses to mechanical stimuli were measured before the injection, at 4 hr and at 1, 3, 5, 7, 9, 11, 13, 15 and 22 days after the injection or at 4, 24, 48 hr and 7 and 14 days after the injection. NK1-selective agonist ((Sar^9, Met(O2)^11)—SP) was from Sigma Chemical (St. Louis, Mo.). NK1-selective antagonist (RP67580) and XE991 were from Tocris (Avonmouth, UK). The experimenters were blinded to the experimental manipulations. The person who conducted von Frey test had no information of the mouse genotypes or drug injections.

OC[C@H]1O[C@@H](n2cnc3c(NCc4ccc(O)cc4)ncnc32)[C@H](O)[C@@H]1O [T1-11, N^6-(4-hydroxybenzyl)adenosine]
acid-induced current in ASIC3-expressing muscle nociceptors [1]: is enough to inhibit acid-induced current; also recorded: inhibited acid-induced current in all ASIC3-expressing muscle nociceptors | acid-induced current in CHO cells transfected with ASIC3 [2]: blocked | acid-induced hyperalgesia, co-injection of acid and T1-11 [3]: abolished the transient hyperalgesia and prevented the development of chronic hyperalgesia; also recorded: still had analgesic effects
